Measurements taken from patent US20250064941A1, “SIGLEC LIGANDS, CONJUGATES, AND METHODS OF USE THEREOF” (Osprey Biopharmaceuticals, Inc., priority 2023, published 2025).

How the values were obtained:
[1] = target: T1, mouse Siglec-2-Fc-Avi (CD22) (Mus musculus, UniProt P35329); assay: SPR binding affinity to mouse CD22; conditions: steady-state analysis
T1 construct: made in house
T1 sequence (P35329 22-708 limits assumed): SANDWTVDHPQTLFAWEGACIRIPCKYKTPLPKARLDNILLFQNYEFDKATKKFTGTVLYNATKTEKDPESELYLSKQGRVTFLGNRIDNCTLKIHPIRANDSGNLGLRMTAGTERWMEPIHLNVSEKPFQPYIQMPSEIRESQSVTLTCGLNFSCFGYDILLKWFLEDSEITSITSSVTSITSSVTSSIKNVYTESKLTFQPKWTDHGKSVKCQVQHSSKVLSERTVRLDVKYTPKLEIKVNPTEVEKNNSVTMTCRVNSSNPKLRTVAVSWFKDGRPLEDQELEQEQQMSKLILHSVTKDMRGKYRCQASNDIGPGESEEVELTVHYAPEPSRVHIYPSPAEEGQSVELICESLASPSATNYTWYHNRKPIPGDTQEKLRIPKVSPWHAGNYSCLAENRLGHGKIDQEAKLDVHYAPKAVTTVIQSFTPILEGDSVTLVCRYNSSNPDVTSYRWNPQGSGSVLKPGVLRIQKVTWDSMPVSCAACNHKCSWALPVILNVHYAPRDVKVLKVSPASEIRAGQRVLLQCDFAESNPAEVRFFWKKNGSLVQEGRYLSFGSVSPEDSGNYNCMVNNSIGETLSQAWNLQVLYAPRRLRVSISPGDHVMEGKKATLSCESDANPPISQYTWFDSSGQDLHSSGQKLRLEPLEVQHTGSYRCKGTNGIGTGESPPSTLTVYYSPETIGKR
Outline: (§1)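 SialoExo pretreatment, 4 h 37° C.; biotinylated CD22 on SA chip, Biacore 8K. Buffer 10 mM HEPES, 150 mM NaCl, 0.05% Tween-20, pH 7.5, 1% DMSO. Dissociation 120 s; solvent-corrected; steady-state KD.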

[2] = target: T2, human Siglec-2/CD22 protein (Homo sapiens, UniProt P20273); assay: SPR binding affinity to human CD22; conditions: steady-state analysis
T2 construct: purchased Acro Biosystems SI2-H82E3
T2 sequence (P20273 20-847): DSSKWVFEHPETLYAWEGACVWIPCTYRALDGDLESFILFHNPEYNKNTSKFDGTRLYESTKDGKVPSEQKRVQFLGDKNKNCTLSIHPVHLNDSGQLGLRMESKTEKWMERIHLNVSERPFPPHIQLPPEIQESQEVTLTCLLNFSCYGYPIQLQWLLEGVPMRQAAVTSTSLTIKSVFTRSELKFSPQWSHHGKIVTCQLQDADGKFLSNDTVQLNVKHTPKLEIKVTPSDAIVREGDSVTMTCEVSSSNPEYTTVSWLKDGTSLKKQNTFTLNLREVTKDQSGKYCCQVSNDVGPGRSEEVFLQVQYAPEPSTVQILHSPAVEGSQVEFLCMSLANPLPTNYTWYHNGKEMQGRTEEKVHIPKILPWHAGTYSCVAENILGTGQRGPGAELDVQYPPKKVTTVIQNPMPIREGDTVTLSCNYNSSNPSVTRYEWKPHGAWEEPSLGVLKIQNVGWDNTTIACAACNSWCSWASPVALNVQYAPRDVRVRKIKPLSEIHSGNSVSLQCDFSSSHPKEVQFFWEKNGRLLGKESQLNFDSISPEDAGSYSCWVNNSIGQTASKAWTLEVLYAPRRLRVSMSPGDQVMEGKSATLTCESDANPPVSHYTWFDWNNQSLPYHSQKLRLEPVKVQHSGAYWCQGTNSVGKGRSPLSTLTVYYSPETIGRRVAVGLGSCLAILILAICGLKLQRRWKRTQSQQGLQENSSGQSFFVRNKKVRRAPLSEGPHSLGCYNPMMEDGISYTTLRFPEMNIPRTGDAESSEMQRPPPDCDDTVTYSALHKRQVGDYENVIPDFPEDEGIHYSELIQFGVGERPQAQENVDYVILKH
Outline: as §1

[3] = target: cynomolgus Siglec-2/CD22 (Macaca fascicularis, UniProt A0A2K5WCZ6); assay: biochemical; assay type: binding; conditions: SPR, steady-state analysis; read-out: Affinity cyno CD22
Description: Prior to immobilization, CD22 proteins were treated with SialoExo (Genovis, Cat #G1-SM1-020) for 4 hours at 37° C. to remove native sialic acid residues.
Surface preparation for cyno CD22 protein consisted of amine coupling to Cytiva CM5 chip (Cytiva, Cat #BR100530) using the Cytiva amine coupling kit Type 2 (Cytiva, Cat #BR100633). Following the standard amine coupling protocols, EDC and NHS from the kit were mixed 1:1 and injected over flow cells 1 and 2. […] Any active carboxy groups were then capped with 1M Ethanolamine, pH 8.5 for 420s on flow cells 1 and 2.
Binding experiments of Siglec-ligand conjugated proteins or Siglec ligand compounds were performed on the surfaces prepared above in 10 mM HEPES, 150 mM NaCl, 0.05% Tween-20, pH 7.5, 1% DMSO as the running buffer. […] The compounds were then allowed to dissociate from the surface for 120 seconds. […] Solvent correction was performed using 0.5, 1, 1.5, and 2% DMSO spike into running buffer without DMSO. […] Data was analyzed using steady-state analysis in Biacore Insight Evaluation Software, version 3.0 for Siglec ligand compounds.

cynomolgus Siglec-2/CD22, sequence (A0A2K5WCZ6 entry or part of it): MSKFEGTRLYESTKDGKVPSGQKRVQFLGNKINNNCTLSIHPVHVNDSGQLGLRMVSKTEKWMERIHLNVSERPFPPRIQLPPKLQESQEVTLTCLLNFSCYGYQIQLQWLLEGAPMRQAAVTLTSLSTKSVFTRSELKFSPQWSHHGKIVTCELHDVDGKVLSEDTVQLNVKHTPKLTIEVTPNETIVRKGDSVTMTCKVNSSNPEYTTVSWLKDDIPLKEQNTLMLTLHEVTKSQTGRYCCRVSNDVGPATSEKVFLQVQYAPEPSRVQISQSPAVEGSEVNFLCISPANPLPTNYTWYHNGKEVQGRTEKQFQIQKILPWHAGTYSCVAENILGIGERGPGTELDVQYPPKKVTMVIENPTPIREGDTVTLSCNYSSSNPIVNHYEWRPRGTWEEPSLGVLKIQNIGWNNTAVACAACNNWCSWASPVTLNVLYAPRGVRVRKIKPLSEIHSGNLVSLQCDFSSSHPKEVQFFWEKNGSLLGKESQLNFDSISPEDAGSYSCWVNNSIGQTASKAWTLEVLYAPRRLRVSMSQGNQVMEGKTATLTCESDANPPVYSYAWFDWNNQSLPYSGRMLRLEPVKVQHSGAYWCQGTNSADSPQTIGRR

`C#CCOCCOCCO[C@]1(C(=O)O)C[C@H](O)[C@@H](NC(=O)CO)[C@H]([C@H](O)[C@H](O)CNC(=O)Cc2ccc(-c3cccc(O)c3)cc2)O1` [Compound 78, (2R,4S,5R,6R)-6-((1R,2R)-1,2-dihydroxy-3-(2-(3′-hydroxy-[1,1′-biphenyl]-4-yl)acetamido)propyl)-4-hydroxy-5-(2-hydroxyacetamido)-2-(2-(2-(prop-2-yn-1-yloxy)ethoxy)ethoxy)tetrahydro-2H-pyran-2-carboxylic acid] showed a Kd [1] of 1 to 10 µM, a Kd [2] of under 1 µM and a Kd [3] of 1 to 10 µM.
In the case of `C#CCOCCOCCO[C@]1(C(=O)O)C[C@H](O)[C@@H](NC(=O)CO)[C@H]([C@H](O)[C@H](O)CNC(=O)Cc2ccc(Cl)cc2)O1` [Compound 126, (2R,4S,5R,6R)-6-((1R,2R)-3-(2-(4-chlorophenyl)acetamido)-1,2-dihydroxypropyl)-4-hydroxy-5-(2-hydroxyacetamido)-2-(2-(2-(prop-2-yn-1-yloxy)ethoxy)ethoxy)tetrahydro-2H-pyran-2-carboxylic acid], the Kd [1] is reported as 1 to 10 µM, the Kd [2] is reported as 1 to 10 µM and the Kd [3] is reported as 1 to 10 µM.
In the case of `C#CCCOc1ccc(CS[C@]2(C(=O)O)C[C@H](O)[C@@H](NC(=O)CO)[C@H]([C@H](O)[C@H](O)CNC(=O)Cc3ccc(O)cc3)O2)cc1` [Compound 148, (2S,4S,5R,6R)-2-((4-(but-3-yn-1-yloxy)benzyl)thio)-6-((1R,2R)-1,2-dihydroxy-3-(2-(4-hydroxyphenyl)acetamido)propyl)-4-hydroxy-5-(2-hydroxyacetamido)tetrahydro-2H-pyran-2-carboxylic acid], the Kd [1] is reported as under 1 µM, the Kd [2] is reported as under 1 µM and the Kd [3] is reported as 1 to 10 µM.
For `C#CCOCCCCCCO[C@]1(C(=O)O)C[C@H](O)[C@@H](NC(=O)CO)[C@H]([C@H](O)[C@H](O)CNC(=O)Cc2ccc(C(F)(F)F)cc2)O1` [Compound 158, (2R,4S,5R,6R)-6-((1R,2R)-1,2-dihydroxy-3-(2-(4-(trifluoromethyl)phenyl)acetamido)propyl)-4-hydroxy-5-(2-hydroxyacetamido)-2-((6-(prop-2-yn-1-yloxy)hexyl)oxy)tetrahydro-2H-pyran-2-carboxylic acid], the Kd [1] was 1 to 10 µM, the Kd [2] was under 1 µM and the Kd [3] was 1 to 10 µM.
With `C#CCOCCCCCCO[C@]1(C(=O)O)C[C@H](O)[C@@H](NC(=O)COC)[C@H]([C@H](O)[C@H](O)CNC(=O)Cc2ccc(Cl)cc2)O1` [Compound 192, (2R,4S,5R,6R)-6-((1R,2R)-3-(2-(4-chlorophenyl)acetamido)-1,2-dihydroxypropyl)-4-hydroxy-5-(2-methoxyacetamido)-2-((6-(prop-2-yn-1-yloxy)hexyl)oxy)tetrahydro-2H-pyran-2-carboxylic acid] the Kd [1] was over 10 µM, the Kd [2] was 1 to 10 µM and the Kd [3] was 1 to 10 µM.
Work on `C#CCOCCOCCO[C@]1(C(=O)O)C[C@H](O)[C@@H](NC(=O)CO)[C@H]([C@H](O)[C@H](O)CNC(=O)Cc2cccc(-c3ccccc3)c2)O1` [Compound 33, (2R,4S,5R,6R)-6-((1R,2R)-3-(2-([1,1′-biphenyl]-3-yl)acetamido)-1,2-dihydroxypropyl)-4-hydroxy-5-(2-hydroxyacetamido)-2-(2-(2-(prop-2-yn-1-yloxy)ethoxy)ethoxy)tetrahydro-2H-pyran-2-carboxylic acid] yielded a Kd [1] of over 10 µM, a Kd [2] of under 1 µM and a Kd [3] of 1 to 10 µM.
`O=C(O)CCCO[C@]1(C(=O)O)C[C@H](O)[C@@H](NC(=O)CO)[C@H]([C@H](O)[C@H](O)CNC(=O)Cc2ccc(Cl)cc2)O1` [Compound 118, (2R,4S,5R,6R)-2-(3-carboxypropoxy)-6-((1R,2R)-3-(2-(4-chlorophenyl)acetamido)-1,2-dihydroxypropyl)-4-hydroxy-5-(2-hydroxyacetamido)tetrahydro-2H-pyran-2-carboxylic acid] gave a Kd [1] of over 10 µM, a Kd [2] of 1 to 10 µM and a Kd [3] of 1 to 10 µM.
With `C#CCOCCCCCCO[C@]1(C(=O)O)C[C@H](O)[C@@H](NC(=O)CO)[C@H]([C@H](O)[C@H](O)CNC(=O)Cc2cccc(O)c2)O1` [Compound 144, (2R,4S,5R,6R)-6-((1R,2R)-1,2-dihydroxy-3-(2-(3-hydroxyphenyl)acetamido)propyl)-4-hydroxy-5-(2-hydroxyacetamido)-2-((6-(prop-2-yn-1-yloxy)hexyl)oxy)tetrahydro-2H-pyran-2-carboxylic acid] the Kd [1] was 1 to 10 µM, the Kd [2] was 1 to 10 µM and the Kd [3] was under 1 µM.
With `C#CCOCCCCCCO[C@]1(C(=O)O)C[C@H](O)[C@@H](NC(=O)COc2ccccc2)[C@H]([C@H](O)[C@H](O)CNC(=O)Cc2ccc(Cl)cc2)O1` [Compound 91, (2R,4S,5R,6R)-6-((1R,2R)-3-(2-(4-chlorophenyl)acetamido)-1,2-dihydroxypropyl)-4-hydroxy-5-(2-phenoxyacetamido)-2-((6-(prop-2-yn-1-yloxy)hexyl)oxy)tetrahydro-2H-pyran-2-carboxylic acid] the Kd [1] was over 10 µM, the Kd [2] was 1 to 10 µM and the Kd [3] was under 1 µM.
`C#CCCOc1ccc(CO[C@]2(C(=O)O)C[C@H](O)[C@@H](NC(=O)CO)[C@H]([C@H](O)[C@H](O)CNC(=O)Cc3ccc4[nH]c(=O)[nH]c4c3)O2)cc1` [Compound 7, (2R,4S,5R,6R)-2-((4-(but-3-yn-1-yloxy)benzyl)oxy)-6-((1R,2R)-1,2-dihydroxy-3-(2-(2-oxo-2,3-dihydro-1H-benzo[d]imidazol-5-yl)acetamido)propyl)-4-hydroxy-5-(2-hydroxyacetamido)tetrahydro-2H-pyran-2-carboxylic acid] was tested, and the Kd [1] was over 10 µM, the Kd [2] was 1 to 10 µM and the Kd [3] was over 10 µM.
`C#CCOCCOCCO[C@]1(C(=O)O)C[C@H](O)[C@@H](NC(=O)CO)[C@H]([C@H](O)[C@H](O)CNC(=O)c2ccccc2Cl)O1` [Compound 27, (2R,4S,5R,6R)-6-((1R,2R)-3-(2-chlorobenzamido)-1,2-dihydroxypropyl)-4-hydroxy-5-(2-hydroxyacetamido)-2-(2-(2-(prop-2-yn-1-yloxy)ethoxy)ethoxy)tetrahydro-2H-pyran-2-carboxylic acid] gave a Kd [1] of over 10 µM, a Kd [2] of over 10 µM and a Kd [3] of over 10 µM.
`C#CCOCCCCCCO[C@]1(C(=O)O)C[C@H](O)[C@@H](NC(=S)NC)[C@H]([C@H](O)[C@H](O)CNC(=O)Cc2ccc(Cl)cc2)O1` [Compound 84, (2R,4S,5R,6R)-6-((1R,2R)-3-(2-(4-chlorophenyl)acetamido)-1,2-dihydroxypropyl)-4-hydroxy-5-(3-methylthioureido)-2-((6-(prop-2-yn-1-yloxy)hexyl)oxy)tetrahydro-2H-pyran-2-carboxylic acid] showed a Kd [1] of 1 to 10 µM, a Kd [2] of under 1 µM and a Kd [3] of 1 to 10 µM.
